Reference: US12011444B2, “N-substituted indole derivatives as PGE2 receptor modulators” (Idorsia Pharmaceuticals Ltd, priority 2015, dated 2024)

Key:
EP2 = EP2 (Homo sapiens (Human), UniProt P43116);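 also: antagonism of PGE2-stimulated cAMP accumulation in SF295 human glioblastoma cells with endogenous EP2, cAMP read by HTRF, expressed relative to DMSO control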
EP4 = EP4 (Homo sapiens (Human), UniProt P35408); test: hEP4 cAMP assay (BT549 breast cancer cells, HTRF cAMP); assay type: cell-based; details: antagonistic activity; mean values where measured multiple times
Chain of EP4 (P35408 whole entry): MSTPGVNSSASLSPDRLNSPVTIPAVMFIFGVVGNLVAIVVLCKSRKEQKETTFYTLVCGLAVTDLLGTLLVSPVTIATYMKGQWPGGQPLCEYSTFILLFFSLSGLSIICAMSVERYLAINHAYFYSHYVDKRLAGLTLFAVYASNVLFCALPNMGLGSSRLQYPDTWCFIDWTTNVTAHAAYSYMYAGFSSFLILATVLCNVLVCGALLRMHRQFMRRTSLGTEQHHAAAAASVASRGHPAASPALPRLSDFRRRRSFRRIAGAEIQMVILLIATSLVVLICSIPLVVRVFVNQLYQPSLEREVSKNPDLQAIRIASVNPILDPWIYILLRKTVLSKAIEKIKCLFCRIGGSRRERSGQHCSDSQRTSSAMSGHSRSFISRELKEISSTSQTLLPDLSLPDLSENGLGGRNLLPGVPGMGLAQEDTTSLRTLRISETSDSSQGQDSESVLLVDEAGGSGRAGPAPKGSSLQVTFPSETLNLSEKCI
Description: Plate is pre-incubated 45 minutes at room temperature. Subsequently, 2.5 microliters of PGE2 (final conc. 6 nM) are transferred into the assay plate. Plate is incubated 30 minutes at room temperature.

Chain of EP2 (P43116 whole entry): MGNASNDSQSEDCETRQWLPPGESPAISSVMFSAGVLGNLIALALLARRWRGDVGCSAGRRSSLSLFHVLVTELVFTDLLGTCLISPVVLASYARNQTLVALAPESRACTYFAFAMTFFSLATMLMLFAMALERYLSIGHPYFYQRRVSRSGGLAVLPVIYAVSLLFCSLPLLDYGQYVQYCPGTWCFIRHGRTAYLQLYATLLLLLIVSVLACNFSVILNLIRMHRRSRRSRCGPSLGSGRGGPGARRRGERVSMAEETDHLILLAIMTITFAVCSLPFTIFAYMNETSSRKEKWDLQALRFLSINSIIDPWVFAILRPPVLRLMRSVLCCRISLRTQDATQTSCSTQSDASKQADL

IC50 (EP2) [nM] | IC50 (EP4) [nM] | SMILES
16 | 91 | COc1cc(F)cc2c1cc(C)n2CCNc1cc(-c2ccc(-c3cnccn3)cc2)ncn1 [Example 750, [2-(6-Fluoro-4-methoxy-2-methyl-indol-1-yl)-ethyl]-[6-(4-pyrazin-2-yl-phenyl)-pyrimidin-4-yl]-amine]
7 | 107 | Cc1ccc(F)c2c1cc(C)n2CCNc1cc(-c2ccc(C(=O)O)c(NCC(F)(F)F)c2)ncn1 [compound 560, 4-{6-[2-(7-Fluoro-2,4-dimethyl-indol-1-yl)-ethylamino]-pyrimidin-4-yl}-2-(2,2,2-trifluoro-ethylamino)-benzoic acid]
4 | 221 | CCCCOc1cc(-c2cc(NCCn3c(C)cc4c(OC)ccc(Cl)c43)ncn2)ccc1C(=O)O [compound 613]
61 | 842 | COc1cccc2c1cc(C)n2CCNc1cc(-c2ccc3c(c2)CN(CC(C)C)C3=O)ncn1 [compound 462]
12 | 193 | COc1ccc(Cl)c2c1cc(C)n2CCNc1cc(-c2ccc(C(=O)O)c(OCC(C)C)c2)ncn1 [compound 614]
114 | 153 | COc1cc(F)c(F)c2c1cc(C)n2CCNc1cc(-c2ccc(-c3cncn3C)cc2)ncn1 [compound 641]
239 | 842 | Cc1nc2cc(-c3cc(NCCn4c(C)cc5c(C)ccc(F)c54)ncn3)ccc2o1 [compound 686]
11 | 164 | COc1cccc2c1cc(C)n2CCNc1cc(-c2ccc(C(=O)O)c(CC(C)C)c2)ncn1 [compound 428]
42 | 69 | Cc1c(F)cc(F)c2c1cc(C)n2CCNc1cc(-c2ccc(C(=O)O)c(CC(C)C)c2)ncn1 [compound 501]
33 | 573 | Cc1cc2c(Cl)cc(Cl)cc2n1CCNc1cc(-c2ccc(-c3csc(C(=O)O)n3)cc2)ncn1 [compound 550]
24 | 126 | CCCOc1cc(-c2cc(NCCn3c(C)cc4c(OC)cc(F)cc43)ncn2)cc(F)c1C(=O)O [compound 608]
23 | 28 | CCNC(=O)Nc1ccc(-c2cc(NCCn3c(C)cc4c(OC)ccc(F)c43)ncn2)cc1OC [compound 555, 1-Ethyl-3-(4-{6-[2-(7-fluoro-4-methoxy-2-methyl-indol-1-yl)-ethylamino]-pyrimidin-4-yl}-2-methoxy-phenyl)-urea]
39 | 91 | COc1c(F)cc(Cl)c2c1cc(C)n2CCNc1cc(-c2ccc3c(=O)[nH][nH]c3c2)ncn1 [Example 782, 6-{6-[2-(7-Chloro-5-fluoro-4-methoxy-2-methyl-indol-1-yl)-ethylamino]-pyrimidin-4-yl}-1,2-dihydro-indazol-3-one]
17 | 165 | CCOc1cc(-c2cc(NCCn3c(C)cc4c(OC)ccc(F)c43)ncn2)cc(F)c1C(=O)O [compound 490]
57 | 905 | CCOc1cc(-c2cc(NCCn3c(C)cc4c(C)cc(F)cc43)nc(C)n2)ccc1C(=O)O [compound 440]
33 | 294 | CNS(=O)(=O)c1ccc(-c2cc(NCCn3c(C)cc4c(OC)ccc(F)c43)ncn2)cc1C(F)(F)F [compound 591, 4-{6-[2-(7-Fluoro-4-methoxy-2-methyl-indol-1-yl)-ethylamino]-pyrimidin-4-yl}-N-methyl-2-trifluoromethyl-benzenesulfonamide]
19 | 25 | COc1cc(F)cc2c1cc(C)n2CCNc1cc(-c2cc(C(F)(F)F)c(C(=O)O)s2)nc(C)n1 [compound 541]
38 | 14 | COc1cc(F)c(F)c2c1cc(C)n2CCNc1cc(-c2cc(C(F)(F)F)c(C(=O)O)s2)ncn1 [compound 525]

SMILES | IC50 (EP2) [nM] | IC50 (EP4) [nM]
COc1ccc(F)c2c1cc(C)n2CCNc1cc(-c2ccc(-c3onc(C)c3C(=O)O)cc2)ncn1 [compound 596] | 10 | 222
